Data on 3 molecules can be found in the supplement of paper PMC4862054.

Molecules are shown by their SMILES. Where “and” joins values, the source holds several entries; their conditions need not be identical. Equal entries are not always repeated.

Assay [1] concerns MDA-MB-453. The assay can be described thus: normalised viability (% of control), CellTiter-Blue; higher = more viable cells (about 100 = DMSO control). As to conditions: incubation time: 72 h. On the procedure:
(§1)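 DSRT, CellTiter-Blue viability, 72 h incubation. Signal is normalised to DMSO and benzethonium chloride controls. Value is the normalised response at dose 9.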
On the technique in general: Resazurin is reduced to fluorescent resorufin, in cell work by metabolically active cells.

Assay [2] deals with CAL-148. The description is as above. The settings on record: incubation time: 72 h. On the procedure:
as §1

Assay [3] concerns HDQ-P1. The description is as above. The settings on record: incubation time: 72 h. On the procedure:
as §1

Assay [4] deals with CAL-51. The assay is described as above. As to conditions: incubation time: 72 h. On the procedure: as §1
The test system of assay [5] is CAL-85-1. Described as above. The settings on record: incubation time: 72 h. On the procedure: as §1
For assay [6], the system named is DU-4475. The assay is described as above. The settings on record: incubation time: 72 h. On the procedure: as §1
Assay [7] relates to MDA-MB-453. The assay is described as above. As to conditions: incubation time: 72 h. On the procedure: (§2)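 DSRT, CellTiter-Blue viability, 72 h incubation. Signal is normalised to DMSO and benzethonium chloride controls. Value is the normalised response at dose 6.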
The source holds these as a separate data set.

For assay [8], the system named is CAL-148. The description is as above. The settings on record: incubation time: 72 h. On the procedure:
as §2
The source holds these as a separate data set.

The subject of assay [9] is HDQ-P1. The description is as above. The settings on record: incubation time: 72 h. On the procedure: as §2
The source holds these as a separate data set.

The subject of assay [10] is CAL-51. The assay is described as above. The settings on record: incubation time: 72 h. On the procedure: as §2
The source holds these as a separate data set.

In assay [11] the test system is CAL-85-1. Described as above. The settings on record: incubation time: 72 h. On the procedure:
as §2
This is another data set of the same source.

Assay [12] relates to DU-4475. Described as above. As to conditions: incubation time: 72 h. On the procedure: as §2
This is another data set of the same source.

For assay [13], the system named is MDA-MB-453. Described as above. As to conditions: incubation time: 72 h. On the procedure:
(§3)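 DSRT, CellTiter-Blue viability, 72 h incubation. Signal is normalised to DMSO and benzethonium chloride controls. Value is the normalised response at dose 3.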
This is another data set of the same source.

The test system of assay [14] is CAL-148. The assay is described as above. As to conditions: incubation time: 72 h. On the procedure:
as §3
The source holds these as a separate data set.

Assay [15] deals with HDQ-P1. The description is as above. The settings on record: incubation time: 72 h. On the procedure:
as §3
The source holds these as a separate data set.

For a further assay, the system named is MDA-MB-436. The description is as above. As to conditions: incubation time: 72 h. On the procedure: as §3
A further assay has as its system HCC1599. The assay is described as above. As to conditions: incubation time: 72 h. On the procedure:
as §3

For another assay, the system named is BT-549. The description is as above. As to conditions: incubation time: 72 h. On the procedure:
as §3

The test system of another assay is HCC1143. The description is as above. As to conditions: incubation time: 72 h. On the procedure: as §3
The next assay has as its system BT-474. Described as above. As to conditions: incubation time: 72 h. On the procedure: as §3
Another assay deals with SK-BR-3. Described as above. The settings on record: incubation time: 72 h. On the procedure: as §3
In assay [16] the test system is MDA-MB-453. As to conditions: 72 h. Put shortly:
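Each 384-well plate was pre-loaded with compound dissolved in 5 µl medium, received breast cancer cells in 20 µl suspension, and was incubated 72 h. A 2.5 µl addition of CellTiter-Blue for 2 h at 37 °C was followed by a fluorescence read at 560/590 nm. Data were normalised per plate to vehicle and a positive kill control and checked by Z'-factor. EC50 was fitted from the percent-inhibition dose-response curve, censored at the highest concentration, excluding rows with a drug sensitivity score of zero.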

For assay [17], the system named is MDA-MB-453. The settings on record: 72 h. Put shortly: (§4)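 Breast cancer cell lines (20 µl suspension) were seeded into 384-well plates holding compound at 5 concentrations in 10-fold steps over a compound-specific 10,000-fold range, then incubated 72 h. Cell death was read first by CellTox Green fluorescence (485/520 nm), then viability by CellTiter-Glo luminescence after 10 min at room temperature. Each plate was normalised to 0.1 % DMSO and a positive kill control. EC50 was fitted from the dose-response curves and censored at the top concentration.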
The source holds these as a separate data set.

The subject of assay [18] is CAL-51. The settings on record: 72 h. The gist of the method:
as §4

As for `Cc1cc2c(C(C)C)c(O)c(O)c(C=O)c2c(O)c1-c1c(C)cc2c(C(C)C)c(O)c(O)c(C=O)c2c1O` [Gossypol], the normalised viability is 2.75% with MDA-MB-453 [1] (100000 nM); 3.73% in the assay with CAL-148 [2] (100000 nM); 4.15% with HDQ-P1 [3] (100000 nM); 2.71% in the assay with CAL-51 [4] (100000 nM); 3.4% with CAL-85-1 [5] (100000 nM); 4.97% in the assay with DU-4475 [6] (100000 nM). In addition, the normalised viability in the assay on MDA-MB-453 [7] (3000 nM) is 62.9%; in the assay with CAL-148 [8] (3000 nM), 114%; with HDQ-P1 [9] (3000 nM) it was 105%; in the assay with CAL-51 [10] (3000 nM), 96.6%; in the assay on CAL-85-1 [11] (3000 nM) it was 80.2%; in the assay with DU-4475 [12] (3000 nM), 49.2%. For the same molecule, the normalised viability with MDA-MB-453 [13] (100 nM) came out at 110%; in the assay with CAL-148 [14] (100 nM) it was 105%; in the assay on HDQ-P1 [15] (100 nM) it was 126%; in the assay on MDA-MB-436 (1000 nM), 96.2%; with HCC1599 (1000 nM), 97%; with BT-549 (1000 nM), 95%. For the same molecule, the figures for the normalised viability in the assay on HCC1143 (1000 nM), in the assay on BT-474 (1000 nM) and in the assay with SK-BR-3 (1000 nM) were 98.2%, 113% and 92.9%, respectively.
Consider `Cc1ccc(NC(=O)c2ccc(CN3CCN(C)CC3)cc2)cc1Nc1nccc(-c2cccnc2)n1` [Imatinib], for which the “EC50, CellTiter-Blue viability” value with MDA-MB-453 [16] worked out at 4.54 µM. Also, the “EC50, CellTiter-Glo” value in the assay with MDA-MB-453 [17] is above 10 µM; in the assay on CAL-51 [18], 4.17 µM. Also, the normalised viability with MDA-MB-453 [1] (10000 nM) was 57.6% and 48.6%; with CAL-148 [2] (10000 nM) it was 80.5% and 92.7%; in the assay with CAL-51 [4] (10000 nM), 110% and 93.9%; in the assay on CAL-85-1 [5] (10000 nM), 87.7% and 85.9%; with DU-4475 [6] (10000 nM) it was 121% and 110%; in the assay with MDA-MB-453 [7] (300 nM), 86.5% and 88.3%. The normalised viability with CAL-148 [8] (300 nM) is 83.5% and 104%; in the assay with HDQ-P1 [9] (300 nM), 74.9% and 72.5%; in the assay on CAL-51 [10] (300 nM), 106% and 102%; in the assay with CAL-85-1 [11] (300 nM), 101% and 94.4%; with DU-4475 [12] (300 nM), 97.8% and 89.4%; with MDA-MB-453 [13] (10 nM), 104% and 94.3%. The normalised viability in the assay on CAL-148 [14] (10 nM) is 84.3% and 89%; in the assay with HDQ-P1 [15] (10 nM), 106% and 126%; with MDA-MB-436 (100 nM), 94.8% and 107%; with HCC1599 (100 nM), 96.5% and 97.5%; in the assay with BT-549 (100 nM), 102% and 109%; in the assay on HCC1143 (100 nM), 85.9% and 82.9%. In addition, the normalised viability in the assay on BT-474 (100 nM) is 103% and 126%; in the assay on SK-BR-3 (100 nM), 86.2% and 75.6%.
Take `Cn1c(=O)n(-c2ccc(C(C)(C)C#N)cc2)c2c3cc(-c4cnc5ccccc5c4)ccc3ncc21` [NVP-BEZ235]: the “EC50, CellTiter-Blue viability” value in the assay on MDA-MB-453 [16] came to 0.00831 µM. The normalised viability came to 13.8% with MDA-MB-453 [1] (1000 nM); 0.2% with CAL-148 [2] (1000 nM); 34% in the assay on HDQ-P1 [3] (1000 nM); 8.61% with CAL-51 [4] (1000 nM); 27.7% with CAL-85-1 [5] (1000 nM); 5.52% with DU-4475 [6] (1000 nM). Further, the normalised viability with MDA-MB-453 [7] (30 nM) came out at 21.9%; in the assay on CAL-148 [8] (30 nM), 32.4%; with HDQ-P1 [9] (30 nM), 39.8%; in the assay with CAL-51 [10] (30 nM), 29.5%; in the assay on CAL-85-1 [11] (30 nM) it was 47.8%; in the assay with DU-4475 [12] (30 nM) it was 65.2%. Also, the normalised viability came out at 96.5% in the assay with MDA-MB-453 [13] (1 nM); 108% in the assay on CAL-148 [14] (1 nM); 102% in the assay on HDQ-P1 [15] (1 nM); 105% in the assay with MDA-MB-436 (10 nM); 84.7% in the assay on HCC1599 (10 nM); 68.2% in the assay with BT-549 (10 nM). Also, the normalised viability was 70.9% in the assay on HCC1143 (10 nM), 91.6% in the assay on BT-474 (10 nM) and 88.4% in the assay with SK-BR-3 (10 nM).
